According to ChEMBL document CHEMBL4004878, “Design, synthesis and structure-bactericidal activity relationships of novel 9-oxime ketolides and reductive epimers of acylides” (2017):
≈ marks a conversion by molar mass, not a printed value.

What was measured:
Type in all cases: functional
Streptococcus pneumoniae [1] = test: Bacteriostatic activity against […] Streptococcus pneumoniae ATCC 49619 after 20 to 24 hrs by two-fold microbroth dilution method
Streptococcus pneumoniae [2] = test: Bactericidal activity against […] Streptococcus pneumoniae ATCC 49619 incubated for 20 to 24 hrs followed by sub-culturing for 24 hrs in absence of compound
Streptococcus pneumoniae [3] = test: Ratio of MBC to MIC for […] Streptococcus pneumoniae ATCC 49619
Streptococcus pneumoniae [4] = test: Bacteriostatic activity against penicillin-susceptible Streptococcus pneumoniae PU09 after 20 to 24 hrs by two-fold microbroth dilution method
Streptococcus pneumoniae [5] = test: Bactericidal activity against penicillin-susceptible Streptococcus pneumoniae PU09 incubated for 20 to 24 hrs followed by sub-culturing for 24 hrs in absence of compound
Streptococcus pneumoniae [6] = test: Ratio of MBC to MIC for penicillin-susceptible Streptococcus pneumoniae PU09
Streptococcus pyogenes [7] = test: Bacteriostatic activity against Streptococcus pyogenes 01-968 expressing inducible ermA after 20 to 24 hrs by two-fold microbroth dilution method
Streptococcus pyogenes [8] = test: Bactericidal activity against Streptococcus pyogenes 01-968 expressing inducible ermA incubated for 20 to 24 hrs followed by sub-culturing for 24 hrs in absence of compound
Streptococcus pyogenes [9] = test: Ratio of MBC to MIC for Streptococcus pyogenes 01-968 expressing inducible ermA
Streptococcus pyogenes [10] = test: Bacteriostatic activity against Streptococcus pyogenes 12-207 expressing mef after 20 to 24 hrs by two-fold microbroth dilution method
Streptococcus pyogenes [11] = test: Bactericidal activity against Streptococcus pyogenes 12-207 expressing mef incubated for 20 to 24 hrs followed by sub-culturing for 24 hrs in absence of compound
Streptococcus pyogenes [12] = test: Ratio of MBC to MIC for Streptococcus pyogenes 12-207 expressing mef
Haemophilus influenzae [13] = test: Bacteriostatic activity against azithromycin-susceptible/ampicillin-resistant Haemophilus influenzae 11P307 after 20 to 24 hrs by two-fold microbroth dilution method
Haemophilus influenzae [14] = test: Bactericidal activity against azithromycin susceptible/ampicillin-resistant Haemophilus influenzae 11P307 incubated for 20 to 24 hrs followed by sub-culturing for 24 hrs in absence of compound
Haemophilus influenzae [15] = test: Ratio of MBC to MIC for azithromycin susceptible/ampicillin-resistant Haemophilus influenzae 11P307
Staphylococcus aureus [16] = test: Bacteriostatic activity against methicillin-resistant Staphylococcus aureus PU20 expressing constitutive ermC after 20 hrs by two-fold microbroth dilution method; details: PU20, 20 h
Staphylococcus aureus [17] = test: Bactericidal activity against methicillin-resistant Staphylococcus aureus PU20 expressing constitutive ermC incubated for 20 hrs followed by sub-culturing for 24 hrs in absence of compound
Staphylococcus aureus [18] = test: Bacteriostatic activity against methicillin-resistant Staphylococcus aureus PU32 expressing inducible ermA after 20 hrs by two-fold microbroth dilution method; details: PU32, 20 h
Staphylococcus aureus [19] = test: Bactericidal activity against methicillin-resistant Staphylococcus aureus PU32 expressing inducible ermA incubated for 20 hrs followed by sub-culturing for 24 hrs in absence of compound
Staphylococcus aureus [20] = test: Ratio of MBC to MIC against methicillin-resistant Staphylococcus aureus PU32 expressing inducible ermA
Moraxella catarrhalis [21] = test: Bacteriostatic activity against erythromycin-susceptible Moraxella catarrhalis 11B366 after 20 hrs by two-fold microbroth dilution method; details: 11B366, 20 h
Moraxella catarrhalis [22] = test: Bactericidal activity against erythromycin-susceptible Moraxella catarrhalis 11B366 incubated for 20 hrs followed by sub-culturing for 24 hrs in absence of compound
Moraxella catarrhalis [23] = test: Ratio of MBC to MIC against erythromycin-susceptible Moraxella catarrhalis 11B366
Moraxella catarrhalis [24] = test: Bacteriostatic activity against erythromycin-susceptible Moraxella catarrhalis 13L332 after 20 hrs by two-fold microbroth dilution method; details: 13L332, 20 h
Moraxella catarrhalis [25] = test: Bactericidal activity against erythromycin-susceptible Moraxella catarrhalis 13L332 incubated for 20 hrs followed by sub-culturing for 24 hrs in absence of compound
Moraxella catarrhalis [26] = test: Ratio of MBC to MIC against erythromycin-susceptible Moraxella catarrhalis 13L332
Haemophilus influenzae [27] = test: Bacteriostatic activity against azithromycin-susceptible Haemophilus influenzae ATCC 49247 after 20 to 24 hrs by two-fold microbroth dilution method
Haemophilus influenzae [28] = test: Bactericidal activity against azithromycin-susceptible Haemophilus influenzae ATCC 49247 incubated for 20 to 24 hrs followed by sub-culturing for 24 hrs in absence of compound
Haemophilus influenzae [29] = test: Ratio of MBC to MIC against azithromycin-susceptible Haemophilus influenzae ATCC 49247
Staphylococcus aureus [30] = test: Ratio of MBC to MIC for methicillin-resistant Staphylococcus aureus PU20 expressing constitutive ermC

| Compound | MIC (Streptococcus pneumoniae [1]) | MBC (Streptococcus pneumoniae [2]) | Ratio (Streptococcus pneumoniae [3]) | MIC (Streptococcus pneumoniae [4]) | MBC (Streptococcus pneumoniae [5]) | Ratio (Streptococcus pneumoniae [6]) | MIC (Streptococcus pyogenes [7]) | MBC (Streptococcus pyogenes [8]) | Ratio (Streptococcus pyogenes [9]) | MIC (Streptococcus pyogenes [10]) | MBC (Streptococcus pyogenes [11]) | Ratio (Streptococcus pyogenes [12]) | MIC (Haemophilus influenzae [13]) | MBC (Haemophilus influenzae [14]) | Ratio (Haemophilus influenzae [15]) | MIC (Staphylococcus aureus [16]) | MBC (Staphylococcus aureus [17]) | MIC (Staphylococcus aureus [18]) | MBC (Staphylococcus aureus [19]) | Ratio (Staphylococcus aureus [20]) | also measured |
| --- | --- | --- | --- | --- | --- | --- | --- | --- | --- | --- | --- | --- | --- | --- | --- | --- | --- | --- | --- | --- | --- |
| CC[C@H]1OC(=O)[C@H](C)C(=O)[C@H](C)[C@@H](O[C@@H]2O[C@H](C)C[C@H](N(C)C)[C@H]2O)[C@](C)(OC)C[C@@H](C)C(=O)[C@H](C)[C@H]2N(CCCCn3cnc(-c4cccnc4)c3)C(=O)O[C@]12C [TELITHROMYCIN] | 0.016 to 0.031 µg/mL (≈ 0.0197 to 0.0382 µM) | 0.031 µg/mL (≈ 0.0382 µM) | 1 - 2 | 0.25 µg/mL (≈ 0.308 µM) | 0.5 to 1 µg/mL (≈ 0.616 to 1.23 µM) | 2 - 4 | 0.062 µg/mL (≈ 0.0764 µM) | 0.125 to 0.5 µg/mL (≈ 0.154 to 0.616 µM) | 2 - 8 | 0.5 µg/mL (≈ 0.616 µM) | 1 µg/mL (≈ 1.23 µM) | 2 | 1 to 4 µg/mL (≈ 1.23 to 4.93 µM) | 4 µg/mL (≈ 4.93 µM) | 1 - 4 | > 256 µg/mL | > 256 µg/mL | 0.125 to 0.25 µg/mL (≈ 0.154 to 0.308 µM) | 1 to 2 µg/mL (≈ 1.23 to 2.46 µM) | >8 | MIC (Moraxella catarrhalis [21]): 0.25 µg/mL (≈ 0.308 µM); MBC (Moraxella catarrhalis [22]): 0.25 µg/mL (≈ 0.308 µM); Ratio (Moraxella catarrhalis [23]): 1; MIC (Moraxella catarrhalis [24]): 0.125 µg/mL (≈ 0.154 µM); MBC (Moraxella catarrhalis [25]): 0.5 µg/mL (≈ 0.616 µM); Ratio (Moraxella catarrhalis [26]): 4; MIC (Haemophilus influenzae [27]): 8 µg/mL (≈ 9.85 µM); MBC (Haemophilus influenzae [28]): 8 µg/mL (≈ 9.85 µM); Ratio (Haemophilus influenzae [29]): 1 |
| CC[C@H]1OC(=O)[C@H](C)C(=O)[C@H](C)[C@@H](O[C@@H]2O[C@H](C)C[C@H](N(C)C)[C@H]2O)[C@](C)(OC)C[C@@H](C)/C(=N\OC/C=C/c2cnc3ccccc3c2)[C@H](C)[C@H]2OC(=O)O[C@@]21C | ≤ 0.008 µg/mL | 0.031 µg/mL (≈ 0.0389 µM) | >=4 | 0.25 µg/mL (≈ 0.314 µM) | 0.5 µg/mL (≈ 0.628 µM) | 2 | 0.062 µg/mL (≈ 0.0779 µM) | > 0.5 µg/mL | >8 | 0.016 µg/mL (≈ 0.0201 µM) | > 0.125 µg/mL | >8 | 8 to 32 µg/mL (≈ 10.1 to 40.2 µM) | 64 to 128 µg/mL (≈ 80.4 to 161 µM) | >=4 - 8 | 32 µg/mL (≈ 40.2 µM) | 32 µg/mL (≈ 40.2 µM) | 1 µg/mL (≈ 1.26 µM) | > 8 µg/mL | >8 | Ratio (Staphylococcus aureus [30]): 1; MIC (Moraxella catarrhalis [21]): 2 µg/mL (≈ 2.51 µM); MBC (Moraxella catarrhalis [22]): 2 µg/mL (≈ 2.51 µM); Ratio (Moraxella catarrhalis [23]): 1; MIC (Haemophilus influenzae [27]): 64 µg/mL (≈ 80.4 µM); MBC (Haemophilus influenzae [28]): > 256 µg/mL; Ratio (Haemophilus influenzae [29]): >4 |
